From patent US9636317B2, “Compositions and methods of use of phorbol esters” (priority 2007, dated 2017)
Several values for one entry are separate records, joined by “and”; a condition that tells them apart may be missing. Identical values can stand only once. Entries after “also recorded” stand apart in the source; their conditions may differ.

Tests used:
Assay type in all cases: in vivo, human
[1] = system: CD3, CD4, CD8; assay: Second clinical study of HIV+ patients: CD3, CD4, CD8; parameters: CD4 / CD8 / CD3: unit not given here; settings: for CD4 / CD3 / CD8: one value per patient
Protocol: (§1) Nine of the patients in Example III were given a second treatment of TPA. Of these nine, seven were asymptomatic at the beginning of the second trial. A tenth patient (patient #2a) who was symptomatic and had not previously been treated with TPA was added to the study. Each patient was administered a weight adjusted dosage of TPA (75 μg/sq m) in 200 ml of sterile saline intravenously over one hour. This dosage was given to each patient once a day for ten consecutive days followed by a rest period of ten days for three cycles and a total of 30 doses of TPA. Patients 5a, 6a, and 8a stopped taking anti-AIDS drugs one month prior to beginning the TPA treatment and beginning again one month after the third cycle. Patients 1-4-a, 7a, and 9a-10a continued taking anti-AIDS drugs throughout the treatment.
Blood samples were taken three days prior to starting treatment, after completing the first 10 day cycle of TPA infusion and again after the last TPA infusion and CD3, CD4, CD8, WBC, RBC, HGB and platelets were measured.

[2] = system: HIV patients; assay: Second clinical study of HIV+ patients: symptoms and side effects (incl. case studies)
Protocol: as §1
Results of treatment of initially symptomatic AIDS patients treated with TPA according to the protocols of Example III, IV, and V. Patients who participated in multiple studies are in some cases identified by more than one patient number. All patient identification numbers correspond to the patient numbers in Tables 1-7.

[3] = system: lymphoma; assay: Treatment of lymphoma (patient case)
Description: Patient five was diagnosed with a re-occurrence of lymphoma and a mass of 3.5 cm in diameter. […] As of 2011, they have been in remission for three years.

[4] = Anti-aging properties of TPA (patient case); settings: 1.25 ampoules of 0.125 mg/m^2 every other day for two months
Protocol: Patient eight, person, was being treated for prostate hypertrophy with 1.25 ampoules of 0.125 mg/m^2 every other day for two months.

[5] = Treatment of rheumatoid arthritis (patient case); settings: multiple injections of TPA
[6] = Treatment of myasthenia gravis (patient case); settings: 35 injections of TPA, concurrent dexamethasone
Protocol: Patient eleven, suffered from myasthenia gravis for more than 40 years. They were taking dexamethasone and concurrently and was injected with 1 ampoule containing 0.19 mg of TPA (0.125 mg/m^2) every other day for four weeks, then 0.24 mg of TPA (1.25×0.125 mg/m^2) every other day for 2 weeks, and 0.26 mg of TPA (1.5×0.125 mg/m^2) every other day for an additional 3 weeks for a total of 35 injections of TPA. They no longer need the dexamethasone and is now asymptomatic.

[7] = After first 10-day TPA infusion cycle
[8] = After third 10-day TPA infusion cycle
[9] = protocol of Example IV, individual patients

CCCCCCCCCCCCCC(=O)O[C@@H]1[C@@H](C)[C@@]2(O)[C@@H](C=C(CO)C[C@]3(O)C(=O)C(C)=C[C@@H]23)[C@@H]2C(C)(C)[C@]12OC(C)=O [TPA, 12-O-tetradecanoylphorbol-13-acetate]
CD4 ([1]; After first 10-day TPA infusion cycle, 75 μg/sq m i.v. daily): 76 and 460 and 189 and 91 and 285 and 729 and 519 and 136 and 74 and 7 | CD3 [1, 7]: 476 and 1200 and 823 and 1598 and 758 and 3148 and 1143 and 712 and 333 and 1323 | CD8 [1, 7]: 335 and 729 and 584 and 1507 and 429 and >2000 and 547 and 574 and 261 and 907 | CD3 [1, 8]: 625 and 2033 and 1193 and 1257 and 938 and 3347 and 1295 and 1317 and 308 and 2037 | CD4 [1, 8]: 137 and 1002 and 205 and 94 and 276 and 786 and 495 and 100 and 63 and 19 | CD8 [1, 8]: 543 and 980 and 916 and 1127 and 466 and >2000 and 733 and 1221 and 208 and 1129 | CD3 (summary of Table 3) ([1]; after the first and third infusion with TPA): increase in CD3 in all patients | AIDS symptoms in the symptomatic patients (#9a, #2a) ([2]; after three cycles of TPA): experienced a disappearance of AIDS symptoms | AIDS symptoms in the other eight patients ([2]; began the study without AIDS symptoms): symptom free at the end of the study | adverse effects during TPA treatment (individual patient) ([2]; protocol of Example IV): no adverse effects; also recorded: no side effects | symptoms after treatment with TPA (individual patient) ([2]; protocol of Example IV): continues to have no symptoms of AIDS; also recorded: the fever and diarrhea were no longer a problem; also recorded: does not have any symptoms of AIDS; also recorded: has not had any symptoms of AIDS; also recorded: Her mental and physical condition has improved considerably | duration of the increase in body temperature [2, 9]: two | increase in body temperature during TPA treatment [2, 9]: 38.5 degrees centigrade | lymphoma mass (3.5 cm in diameter) ([3]; 15 injections of 0.19 mg TPA every other day for 30 days): the mass disappeared | duration of remission ([3]; as of 2011): three years | skin [4]: their skin became softer and had fewer wrinkles | joint stiffness and hand function [5]: reduction in stiffness in the joints and an increase in functionality in their hands | myasthenia gravis symptoms [6]: asymptomatic
